Experimental data: US8465769B2, “Pharmaceutical composition with controlled active ingredient release for active ingredients with good solubility in water” (Evonik Roehm GmbH, priority 2006, dated 2013)
In brackets after ≈: the same amount, converted by molar mass. Structures can show the parent of a compound that is named as a salt. Where two headings read alike, the source gives them in different places.

Assay: Solubility of the active ingredients in water
Type: physicochemical
Settings: thermodynamic from solid
Description: The invention is suitable for active ingredients which have a solubility in water of at least 10 g/l, preferably at least 30 g/l, particularly preferably of at least 50 g/l, especially preferably of at least 100 g/l, 200 g/l, 300 g/l or 400 g/l at 20° C. (solubility in water based on standard methods such as, for example, Pharmeuropa—Technical Guide for the Elaboration of Monographs, 3rd Edition (1999), Chapter IV, Appendix IV (incorporated by reference) with vigorous shaking for 1 min, leaving to stand for 15 min at 20° C. in purified water). These ranges include all intermediate values and subranges.

Row | solubility at 15 min (20 °C) [mg/mL] | Compound | solubility at 15 min (at 20° C., Pharmeuropa Technical Guide method, shaking for 15 min, read-out: solubility in water) [mg/mL]
1 | 500 | CNC[C@H](O)c1cccc(O)c1 [Phenylephrine hydrochloride] | 
2 | 500 | CC(C)(C)NCC(O)c1cc(O)cc(O)c1 (stereo not drawn) [Terbutaline sulphate] | 
3 |  | Cn1c(=O)c2[nH]cnc2n(C)c1=O [Theophylline] | 8.4 (≈ 46.6 mM)
